Data on seven compounds can be found in ChEMBL document CHEMBL3044888, “Fungicidal activity of indole derivatives against some plant pathogenic fungi” (J Pestic Sci, 2010).

What all share (assay type): functional, organism-based
Test [1] concerns Fusarium culmorum. Briefly: Fungicidal activity against Fusarium culmorum assessed as inhibition of hyphal growth by radial growth test.
The subject of test [2] is Globisporangium debaryanum. In words: Fungicidal activity against Pythium debaryanum assessed as inhibition of hyphal growth by radial growth test.
Test [3] relates to Rhizoctonia solani. In words: Fungicidal activity against Rhizoctonia solani assessed as inhibition of hyphal growth by radial growth test.
Test [4] deals with Macrophomina phaseolina. In words: Fungicidal activity against Macrophomina phaseoli assessed as inhibition of hyphal growth by radial growth test.

Converted amounts (≈) assume the structure as drawn.

As to `O=C(O)CCCc1c[nH]c2ccccc12`, the IC50 in test [1] was found to be 576 µg/mL (≈ 2830 µM); in test [2], 249 µg/mL (≈ 1230 µM); in test [3], 644 µg/mL (≈ 3170 µM); in test [4] it was 699 µg/mL (≈ 3440 µM).

As to `O=C(O)Cc1cn(C(=O)c2ccccc2)c2ccccc12`, the IC50 in test [1] is 523 µg/mL (≈ 1870 µM); in test [2], 171 µg/mL (≈ 612 µM); in test [3], 1240 µg/mL (≈ 4450 µM); in test [4] it was 572 µg/mL (≈ 2050 µM).

Consider `CC(=O)n1cc(CCCC(=O)O)c2ccccc21`, for which the IC50 in test [1] was found to be 26.6 µg/mL (≈ 108 µM); in test [2] it was 19 µg/mL (≈ 77.5 µM); in test [3], 117 µg/mL (≈ 477 µM); in test [4] it was 59 µg/mL (≈ 241 µM).

`COCC(=O)N(c1c(C)cccc1C)C(C)C(=O)OC` (stereo not drawn) [METALAXYL]: the IC50 in test [1] was found to be 192 µg/mL (≈ 687 µM); in test [2] it was 211 µg/mL (≈ 755 µM); in test [3], 231 µg/mL (≈ 827 µM); in test [4] it was 173 µg/mL (≈ 619 µM).

In the case of `O=C(O)Cc1c[nH]c2ccccc12` [INDOLE-3-ACETIC ACID], the IC50 came out at 420 µg/mL (≈ 2400 µM) in test [1], 301 µg/mL (≈ 1720 µM) in test [2], 1010 µg/mL (≈ 5760 µM) in test [3] and 807 µg/mL (≈ 4610 µM) in test [4].

Regarding `O=C(c1ccccc1)n1c(-c2ccccc2)cc2ccccc21`, the IC50 in test [1] was determined as 99.9 µg/mL (≈ 336 µM); in test [2] it was 81 µg/mL (≈ 272 µM); in test [3], 122 µg/mL (≈ 411 µM); in test [4], 355 µg/mL (≈ 1190 µM).

`O=C(O)CCCc1cn(C(=O)c2ccccc2)c2ccccc12`: the IC50 in test [1] turned out to be 513 µg/mL (≈ 1670 µM); in test [2] it was 488 µg/mL (≈ 1590 µM); in test [3], 663 µg/mL (≈ 2160 µM); in test [4], 448 µg/mL (≈ 1460 µM).
